Key:
Experiment in all cases: KINOMEscan competition binding
Conditions in all cases: compound 10.0 µM
[1] = target: ROS1 (human) (UniProt P08922)
[2] = target: TNK2 (human) (UniProt Q07912)
[3] = target: CSNK1G1 (human) (UniProt Q9HCP0)
[4] = target: AURKC (human) (UniProt Q9UQB9)
[5] = target: MAP3K12 (human) (UniProt Q12852)
[6] = target: DAPK1 (human) (UniProt P53355)
[7] = target: CDK7 (human) (UniProt P50613)
[8] = target: CAMK2D (human) (UniProt Q13557)
[9] = target: GSK3B (human) (UniProt P49841)
[10] = target: DCLK2 (human) (UniProt Q8N568)
[11] = target: LATS1 (human) (UniProt O95835)
[12] = target: LIMK2 (human) (UniProt P53671)
[13] = target: PRKG1 (human) (UniProt Q13976)
[14] = target: MYLK3 (human) (UniProt Q32MK0)
[15] = target: INSR (human) (UniProt P06213)
[16] = target: PRKAA2 (human) (UniProt P54646)
[17] = target: BLK (human) (UniProt P51451)
[18] = target: TSSK1B (human) (UniProt Q9BXA7)
[19] = target: NUAK1 (human) (UniProt O60285)
[20] = target: RIOK3 (human) (UniProt O14730)
[21] = target: CAMKK1 (human) (UniProt Q8N5S9)
[22] = target: CDK15 (human) (UniProt Q96Q40)
[23] = target: MAP4K2 (human) (UniProt Q12851)
[24] = target: BMPR1A (human) (UniProt P36894)
[25] = target: ULK3 (human) (UniProt Q6PHR2)
[26] = target: MAP3K7 (human) (UniProt O43318)
[27] = target: STK35 (human) (UniProt Q8TDR2)

Chain of AURKC (human) (Q9UQB9 whole entry, looked up): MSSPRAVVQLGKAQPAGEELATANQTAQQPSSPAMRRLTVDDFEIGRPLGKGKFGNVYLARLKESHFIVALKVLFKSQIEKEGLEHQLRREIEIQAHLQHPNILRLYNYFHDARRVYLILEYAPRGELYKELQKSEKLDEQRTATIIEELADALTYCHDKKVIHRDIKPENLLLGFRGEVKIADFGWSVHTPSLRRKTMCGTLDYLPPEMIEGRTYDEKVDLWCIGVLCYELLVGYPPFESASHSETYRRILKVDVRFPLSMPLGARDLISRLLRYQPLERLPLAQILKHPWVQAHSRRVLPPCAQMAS
Chain of MYLK3 (human) (Q32MK0 whole entry, looked up): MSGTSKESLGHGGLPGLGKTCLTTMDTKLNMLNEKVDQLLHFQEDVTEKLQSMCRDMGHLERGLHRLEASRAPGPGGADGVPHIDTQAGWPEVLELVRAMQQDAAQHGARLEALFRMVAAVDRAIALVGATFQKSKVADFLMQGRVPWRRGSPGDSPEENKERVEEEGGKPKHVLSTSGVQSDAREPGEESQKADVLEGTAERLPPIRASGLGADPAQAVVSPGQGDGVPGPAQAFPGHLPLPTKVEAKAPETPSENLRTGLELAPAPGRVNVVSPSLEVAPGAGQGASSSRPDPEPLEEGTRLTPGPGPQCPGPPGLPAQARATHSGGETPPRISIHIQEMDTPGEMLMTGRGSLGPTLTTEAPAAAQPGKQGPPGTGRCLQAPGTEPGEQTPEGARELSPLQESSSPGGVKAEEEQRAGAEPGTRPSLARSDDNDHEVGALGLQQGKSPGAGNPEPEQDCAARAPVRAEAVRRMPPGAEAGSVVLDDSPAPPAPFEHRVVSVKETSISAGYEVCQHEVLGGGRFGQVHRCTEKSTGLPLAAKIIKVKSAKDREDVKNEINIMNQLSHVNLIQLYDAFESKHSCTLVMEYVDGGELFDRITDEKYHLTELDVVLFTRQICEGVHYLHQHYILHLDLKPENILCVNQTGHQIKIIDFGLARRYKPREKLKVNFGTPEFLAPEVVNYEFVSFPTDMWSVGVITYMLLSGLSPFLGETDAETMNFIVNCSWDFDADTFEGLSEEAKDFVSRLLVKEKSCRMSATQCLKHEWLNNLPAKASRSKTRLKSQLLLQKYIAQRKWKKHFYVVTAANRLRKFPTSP
Chain of DCLK2 (human) (Q8N568 whole entry, looked up): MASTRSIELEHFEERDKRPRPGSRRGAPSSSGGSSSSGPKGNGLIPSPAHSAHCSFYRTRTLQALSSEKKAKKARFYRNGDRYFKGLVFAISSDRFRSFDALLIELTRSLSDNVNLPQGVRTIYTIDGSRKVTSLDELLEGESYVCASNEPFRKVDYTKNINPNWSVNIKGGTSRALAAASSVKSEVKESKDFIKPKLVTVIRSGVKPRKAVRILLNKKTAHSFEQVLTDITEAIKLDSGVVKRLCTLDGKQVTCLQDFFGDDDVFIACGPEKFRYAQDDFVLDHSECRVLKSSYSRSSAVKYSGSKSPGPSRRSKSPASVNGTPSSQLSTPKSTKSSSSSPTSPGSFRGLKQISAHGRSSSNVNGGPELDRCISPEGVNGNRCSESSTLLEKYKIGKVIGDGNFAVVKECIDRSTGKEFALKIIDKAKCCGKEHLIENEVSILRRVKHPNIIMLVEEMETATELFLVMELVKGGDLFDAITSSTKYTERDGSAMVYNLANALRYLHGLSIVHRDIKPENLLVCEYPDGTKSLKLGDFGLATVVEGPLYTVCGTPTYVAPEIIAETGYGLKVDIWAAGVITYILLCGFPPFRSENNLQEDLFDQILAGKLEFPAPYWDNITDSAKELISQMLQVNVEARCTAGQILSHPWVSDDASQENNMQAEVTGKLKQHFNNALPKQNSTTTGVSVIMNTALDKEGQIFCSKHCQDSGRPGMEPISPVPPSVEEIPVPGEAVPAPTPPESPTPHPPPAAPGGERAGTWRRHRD
Chain of CDK7 (human) (P50613 whole entry, looked up): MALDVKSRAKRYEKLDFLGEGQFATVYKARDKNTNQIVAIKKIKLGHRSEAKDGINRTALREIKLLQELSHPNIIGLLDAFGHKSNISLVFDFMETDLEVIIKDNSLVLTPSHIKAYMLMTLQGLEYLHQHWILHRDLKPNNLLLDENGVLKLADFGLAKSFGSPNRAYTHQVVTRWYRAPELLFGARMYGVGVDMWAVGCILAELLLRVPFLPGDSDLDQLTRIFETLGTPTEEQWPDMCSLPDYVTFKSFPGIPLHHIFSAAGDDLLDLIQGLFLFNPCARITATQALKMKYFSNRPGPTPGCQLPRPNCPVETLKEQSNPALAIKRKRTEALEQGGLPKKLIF
Chain of RIOK3 (human) (O14730 whole entry, looked up): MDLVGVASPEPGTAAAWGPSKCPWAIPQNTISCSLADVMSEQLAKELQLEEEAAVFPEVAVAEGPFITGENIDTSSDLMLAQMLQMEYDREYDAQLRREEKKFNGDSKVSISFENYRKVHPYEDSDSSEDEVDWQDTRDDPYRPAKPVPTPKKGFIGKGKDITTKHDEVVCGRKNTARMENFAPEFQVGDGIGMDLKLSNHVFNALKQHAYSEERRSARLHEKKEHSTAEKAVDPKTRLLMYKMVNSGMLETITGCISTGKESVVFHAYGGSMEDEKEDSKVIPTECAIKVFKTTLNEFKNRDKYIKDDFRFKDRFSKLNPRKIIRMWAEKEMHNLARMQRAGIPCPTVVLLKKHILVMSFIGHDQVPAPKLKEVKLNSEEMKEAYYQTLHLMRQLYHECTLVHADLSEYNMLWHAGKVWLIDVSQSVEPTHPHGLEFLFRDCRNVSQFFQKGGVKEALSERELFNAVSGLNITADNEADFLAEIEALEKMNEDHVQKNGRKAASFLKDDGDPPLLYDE
Chain of PRKAA2 (human) (P54646 whole entry, looked up): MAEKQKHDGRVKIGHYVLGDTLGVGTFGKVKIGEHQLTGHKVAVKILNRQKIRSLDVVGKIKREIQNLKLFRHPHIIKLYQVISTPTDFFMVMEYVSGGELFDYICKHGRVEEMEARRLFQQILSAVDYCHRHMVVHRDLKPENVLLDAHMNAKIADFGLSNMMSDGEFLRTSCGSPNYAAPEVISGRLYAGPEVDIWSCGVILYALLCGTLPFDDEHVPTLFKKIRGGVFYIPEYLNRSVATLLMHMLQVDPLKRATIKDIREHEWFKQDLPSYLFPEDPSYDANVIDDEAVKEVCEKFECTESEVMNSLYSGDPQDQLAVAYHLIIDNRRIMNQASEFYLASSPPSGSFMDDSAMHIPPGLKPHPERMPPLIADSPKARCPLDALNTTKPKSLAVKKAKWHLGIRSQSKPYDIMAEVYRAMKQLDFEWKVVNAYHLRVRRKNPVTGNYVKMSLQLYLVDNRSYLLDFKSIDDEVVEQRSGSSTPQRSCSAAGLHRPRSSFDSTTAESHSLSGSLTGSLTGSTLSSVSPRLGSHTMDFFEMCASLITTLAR
Chain of CAMKK1 (human) (Q8N5S9 whole entry, looked up): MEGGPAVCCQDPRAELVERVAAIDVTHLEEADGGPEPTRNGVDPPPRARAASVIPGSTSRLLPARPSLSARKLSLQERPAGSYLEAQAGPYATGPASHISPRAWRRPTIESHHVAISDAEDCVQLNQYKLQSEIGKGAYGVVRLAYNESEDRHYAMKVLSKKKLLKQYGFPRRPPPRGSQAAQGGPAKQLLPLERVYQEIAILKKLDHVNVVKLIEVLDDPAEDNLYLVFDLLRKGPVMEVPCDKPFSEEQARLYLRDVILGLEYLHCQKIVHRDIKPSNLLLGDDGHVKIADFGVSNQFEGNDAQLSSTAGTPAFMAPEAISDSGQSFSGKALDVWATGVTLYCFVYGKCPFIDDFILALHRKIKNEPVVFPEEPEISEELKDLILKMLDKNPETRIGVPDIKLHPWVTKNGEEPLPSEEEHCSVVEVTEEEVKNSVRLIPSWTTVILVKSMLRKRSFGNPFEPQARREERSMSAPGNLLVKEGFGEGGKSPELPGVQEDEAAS
Chain of MAP3K12 (human) (Q12852 whole entry, looked up): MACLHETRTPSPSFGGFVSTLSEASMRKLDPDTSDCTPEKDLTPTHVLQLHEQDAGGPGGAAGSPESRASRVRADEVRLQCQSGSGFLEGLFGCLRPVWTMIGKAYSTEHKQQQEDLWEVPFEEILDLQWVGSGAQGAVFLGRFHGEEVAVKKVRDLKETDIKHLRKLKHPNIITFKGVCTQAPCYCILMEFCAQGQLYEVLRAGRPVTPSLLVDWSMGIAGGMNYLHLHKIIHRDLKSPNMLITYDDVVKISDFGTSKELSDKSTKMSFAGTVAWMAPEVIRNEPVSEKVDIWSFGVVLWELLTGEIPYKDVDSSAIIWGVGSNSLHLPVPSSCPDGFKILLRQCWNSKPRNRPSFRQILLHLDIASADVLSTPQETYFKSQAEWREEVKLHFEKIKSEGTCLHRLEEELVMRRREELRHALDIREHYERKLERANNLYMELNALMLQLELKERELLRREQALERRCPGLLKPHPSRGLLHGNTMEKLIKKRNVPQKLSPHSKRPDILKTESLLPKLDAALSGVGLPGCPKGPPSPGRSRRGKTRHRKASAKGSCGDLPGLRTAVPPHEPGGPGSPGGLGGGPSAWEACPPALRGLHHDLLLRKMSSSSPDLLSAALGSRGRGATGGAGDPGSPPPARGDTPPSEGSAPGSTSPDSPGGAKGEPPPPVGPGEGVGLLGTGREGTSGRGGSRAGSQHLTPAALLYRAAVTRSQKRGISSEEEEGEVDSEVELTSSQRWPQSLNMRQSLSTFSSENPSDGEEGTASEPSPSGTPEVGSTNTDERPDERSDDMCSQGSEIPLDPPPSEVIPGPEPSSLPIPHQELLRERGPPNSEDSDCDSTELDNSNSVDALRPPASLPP

| SMILES | kinase still bound, per cent of control [1] [%] | kinase still bound, per cent of control [2] [%] | kinase still bound, per cent of control [3] [%] | kinase still bound, per cent of control [4] [%] | kinase still bound, per cent of control [5] [%] | kinase still bound, per cent of control [6] [%] | kinase still bound, per cent of control [7] [%] | kinase still bound, per cent of control [8] [%] | kinase still bound, per cent of control [9] [%] | kinase still bound, per cent of control [10] [%] | kinase still bound, per cent of control [11] [%] | kinase still bound, per cent of control [12] [%] | kinase still bound, per cent of control [13] [%] | kinase still bound, per cent of control [14] [%] | kinase still bound, per cent of control [15] [%] | kinase still bound, per cent of control [16] [%] | kinase still bound, per cent of control [17] [%] | kinase still bound, per cent of control [18] [%] | kinase still bound, per cent of control [19] [%] | kinase still bound, per cent of control [20] [%] | also measured |
| --- | --- | --- | --- | --- | --- | --- | --- | --- | --- | --- | --- | --- | --- | --- | --- | --- | --- | --- | --- | --- | --- |
| COc1ccc(N(C(=O)Oc2cc(C(=O)Nc3cccc(C(F)(F)F)c3)ccc2C)c2ccnc(Nc3ccc(N4CCN(C)CC4)cc3)n2)c(OC)c1 | 1.9 | 4 | 100 | 100 | 100 | 100 | 100 | 100 | 100 | 100 | 100 | 0 | 100 | 100 | 100 | 3.3 | 0.45 | 100 | 100 | 100 | kinase still bound, per cent of control [21]: 100% |
| COc1cc(N2CCC(C(N)=O)CC2)ccc1Nc1nc(N)c(Cl)c(Nc2ccccc2S(=O)(=O)C(C)C)n1 | 3.2 | 0.2 | 100 | 100 | 100 | 100 | 100 | 100 | 100 | 100 | 100 | 100 | 100 | 100 | 0.05 | 100 | 22 | 100 | 100 | 100 | kinase still bound, per cent of control [22]: 100%; kinase still bound, per cent of control [23]: 100%; kinase still bound, per cent of control [24]: 100%; kinase still bound, per cent of control [25]: 100%; kinase still bound, per cent of control [26]: 100%; kinase still bound, per cent of control [27]: 100%; kinase still bound, per cent of control [21]: 18% |
| COc1cc(C)c(Sc2cnc(NC(=O)c3ccc(CNC(C)C(C)C)cc3)s2)cc1C(=O)N1CCN(C(C)=O)CC1 (stereo not given) | 100 | 100 | 100 | 100 | 30 | 100 | 1.4 | 100 | 100 | 100 | 100 | 100 | 100 | 100 | 5.1 | 100 | 100 | 100 | 100 | 100 | kinase still bound, per cent of control [22]: 100%; kinase still bound, per cent of control [23]: 100%; kinase still bound, per cent of control [24]: 100%; kinase still bound, per cent of control [25]: 100%; kinase still bound, per cent of control [26]: 100%; kinase still bound, per cent of control [27]: 100%; kinase still bound, per cent of control [21]: 100% |
